Several values for one entry are separate records, joined by “and”; a condition that tells them apart may be missing. Equal values may be shown once. Entries after “also recorded” stand apart in the source; their conditions may differ.
How the values were obtained:
Format in all cases: in vivo, Male Sprague-Dawley rats
[1] = test system: cyclooxygenase-2 (COX-2); assay: Assay C: COX-2 mRNA in heart by TaqMan RT-PCR; conditions: for COX-2 (AU): mRNA; for COX-2 mRNA expression: myocardium, aldosterone + salt, 7, 14, 30 days, eplerenone 100 mg/kg/day
Experimental: (§1) The procedure of Assay B was expanded upon in a further study. […] Myocardial tissue from animals in each treatment group was examined after 7, 14, or 30 days of treatment.
(§2) Potassium chloride supplementation was added to the saline solution in order to prevent the potential hypokalemia associated with aldosterone excess.
(§3) At the time of the surgery, an Alzet 2002 osmotic minipump (Alza Corp., Palo Alto, Calif.) containing either vehicle (9% ethanol/87% propylene glycol/4% dH2O) or 1.0 mg/mL d-aldosterone (Sigma Chemical, St. Louis, Mo.) was inserted subcutaneously at the nape of the neck. Aldosterone was administered at a dose of 0.75 µg/hour. […] Animals were sacrificed from each group (n=8-13) after 7, 14, or 30 days of treatment.
(§4) The fluorogenic 5′-nuclease assay (TaqMan PCR) using Applied Biosystems' 7700 Sequence Detection System (Applied Biosystems, Foster City, Calif.) allowed for real time detection/quantitation of a specific gene by monitoring the increase in fluorescence of a gene-specific, dye-labeled oligonucleotide probe. Probes for target and reference genes were labeled at the 5′-end with a 6-carboxyfluorescein (6FAM) reporter dye and at the 3′-end with a 6-carboxy-N,N,N′,N′-tetramethylrhodamine (TAMRA) quencher dye. When the probe was annealed to the target gene, fluorescence of 6FAM was prevented by the close proximity of TAMRA. The exonuclease activity of Taq polymerase released the dyes from the oligonucleotide probe by displacing the probe from the target sequence resulting in fluorescence excitation in direct proportion to the amount of target message present. Data analysis was performed using the Sequence Detection System software from Applied Biosystems.
All primers and probes were designed using Primer Express software supplied with the 7700 Sequence Detection System and synthesized by Applied Biosystems. Standard curves using 5-fold dilutions of total RNA (from 200 ng to 320 pg) were performed to determine the efficiency of each primer/probe set in the TaqMan reaction prior to the analysis of the experimental samples. Primer/probe sets were designed from known sequences of rat genes to be analyzed. All target gene values were normalized to a reference gene, constitutively expressed cyclophilin. Primer/probe set sequences can be found in Table 8.
RNA was extracted from frozen (−80° C.) rat heart tissue using the Totally RNA Isolation Kit (Ambion, Inc., Austin, Tex.). Tissue was crushed using a stainless steel mortar and pestle, which had been chilled to −80° C. and transferred to a dounce homogenizer (Kontes, Vineland, N.J.) containing 3-10 mL cold denaturation buffer. Tissue was homogenized and transferred to a sterile, 15 mL polypropylene centrifuge tube. An equal volume of phenol:chloroform:isoamyl alcohol (25:24:1) was added, samples were shaken vigorously for 1 min, and incubated on ice for at least 15 min. Samples were centrifuged for 30 min at 10,000g. The aqueous phase was removed, 1/10 volume of a sodium acetate solution (3.0 M NaOAc pH 4.5) was added, samples were shaken or inverted for 10 seconds, and acid-phenol (premixed with isoamyl alcohol):chloroform (5:1, Ambion, Inc.) was added at an volume equivalent to the starting sample volume. Samples were shaken vigorously for 1 min, followed by a 15-min incubation on ice, and centrifuged for 30 min at 10,000 g. The aqueous phase removed and placed in a clean polypropylene tube. An equal volume of isopropanol (Sigma, St. Louis, Mo.) was added and the samples were mixed and incubated overnight at −20° C. The samples were centrifuged for 30 min at 10,000 g, the supernatant was removed and the RNA pellet was resuspended in DNAse/RNAse-free water. Samples were frozen at −80° C. for at least 2 hours, thawed on wet ice, and diluted for quantitation.

[2] = test system: Transforming growth factor beta 1 (TGFβ1); assay: Assay C: TGFβ1 mRNA by TaqMan RT-PCR; conditions: for TGF-β1 mRNA (AU): relative to cyclophilin expression, mean ± SEM, eplerenone dose 100 mg/kg/day; for TGF-β (AU): mRNA, individual rats, incl. rat marked * excluded from statistics
Experimental: as §1, §2, §3, §4
(§5) Primers and probes were designed using Oligo Primer Analysis Software, Version 5.0 (National Biosciences Inc. (NBI)-Wojciech Rychlik, Cascade, Colo.). Primers were synthesized by Life Technologies (Grand Island, N.Y.) and probes were synthesized by Applied Biosystems. Primer/probe sets were designed from known sequences of rat genes to be analyzed. All target gene values were normalized to a reference gene, constitutively expressed cyclophilin. Primer/probe sets sequences can be found in Table 8
(§6) RNA was extracted from frozen (−70° C.) left ventricle (LV) tissue (approximately 10-20 mg) using 1.5 mL RNA-STAT 60 according to manufacturer's instructions (Leedo Medical Laboratories, Inc., Houston, Tex.). Briefly, tissues were homogenized using a tissue homogenizer equipped with a 5 mm probe (Ultra-Turrax T8 Homogenizer, IKA Works, Inc. Wilmington, N.C.). Following homogenization, an equal volume of molecular grade chloroform (Sigma Chemical Co., St. Louis, Mo.) was incubated with periodic mixing for 10 min at room temperature. Samples were centrifuged at 12,000 g for 10 min and RNA was precipitated from the top layer by adding an equal volume of molecular grade isopropanol (Sigma Chemical Co.) followed by an overnight incubation at −80° C. RNA was pelleted by centrifugation at 12,000 g, washed with 75% ethanol, and solubilized in nuclease-free water (Promega, Madison, Wis.).
(§7) Double-stranded cDNA was synthesized by adding 400 ng RNA (4 uL) to a final volume of 20 uL containing 15% nuclease-free water (Promega, Madison, Wis.), 1×RT Buffer (Life Technologies, Grand Island, N.Y.), 10 mM DTT (Life Technologies), 0.5 mM each of dATP, dTTP, dGTP, dCTP (PE Biosystems, Foster City, Calif.), 2.5 μM Oligo d(T)15 (Oligo Therapeutics, Inc., Wilsonville, Oreg.), 40 units RNAsin (Promega), and 200 units SuperScript II Reverse Transcriptase (Life Technologies). The reactions were performed in thin-walled reaction tubes with caps (Applied Biosystems) to ensure accurate reaction temperatures.

[3] = test system: Collagen III; assay: Assay C: Collagen III mRNA by TaqMan RT-PCR; conditions: for Collagen-III (AU): collagen type III mRNA relative to cyclophilin, eplerenone dose 100 mg/kg/day
Experimental: as §1, §2, §3, §4, §5, §6, §7

[4] = group mean, data used for Table 17 (7-day protocol)
[5] = group mean, data used for Table 18 (14-day protocol)
[6] = group mean, data used for Table 19 (30-day protocol)
[7] = mean ± SEM after 7 days of treatment
[8] = mean ± SEM after 14 days of treatment
[9] = mean ± SEM after 30 days of treatment
[10] = group mean, data used for Table 15 (14 days of treatment)
[11] = group mean, data used for Table 16 (30 days of treatment)

Row | Compound | COX-2 (AU) [1, 4] | COX-2 (AU) [1, 5] | COX-2 (AU) [1, 6] | COX-2 mRNA expression [1] | TGF-β1 mRNA (AU) ([2]; after 7 days of treatment) | TGF-β1 mRNA (AU) ([2]; after 14 days of treatment) | TGF-β1 mRNA (AU) ([2]; after 30 days of treatment) | Collagen-III (AU) [3, 7] | Collagen-III (AU) [3, 8] | Collagen-III (AU) [3, 9] | Collagen-III mRNA (AU) [3, 10] | Collagen-III mRNA (AU) [3, 11] | other results
1 | C[C@]12CCC(=O)C=C1CC[C@@H]1[C@@H]2[C@@H](O)C[C@]2(C=O)[C@@H](C(=O)CO)CC[C@@H]12 [Aldosterone] | 2.22 AU | 4.34 AU | 4.53 AU | significantly increased | 1.35 AU | 1.27 AU | 1.33 AU | 1.42 ± 0.12 AU | 1.08 ± 0.14 AU | 1.39 ± 0.20 AU | 1.08 AU | 1.39 AU | COX-2 (AU) ([1]; individual rats, data used for Table 17 (7-day protocol), incl. rat marked * excluded from statistics, listed as Aldosterone + salt): 2.10 AU and 0.70 AU and 2.01 AU and 2.95 AU and 2.05 AU and 1.94 AU and 3.54 AU and 2.45 AU and 0.82 AU; COX-2 (AU) ([1]; individual rats, data used for Table 18 (14-day protocol), incl. rat marked * excluded from statistics, listed as Aldosterone + salt): 7.39 AU and 1.83 AU and 5.80 AU and 2.59 AU and 6.63 AU and 4.18 AU and 3.71 AU and 2.62 AU and 23.34 AU; COX-2 (AU) ([1]; individual rats, data used for Table 19 (30-day protocol), incl. rat marked * excluded from statistics, listed as Aldosterone + salt): 4.26 AU and 4.81 AU and 1.54 AU and 3.10 AU and 5.28 AU and 8.20 AU; TGF-β (AU) ([2]; data used for Table 17 (7-day protocol), listed as Aldosterone + salt): 1.23 AU and 0.98 AU and 1.31 AU and 1.89 AU and 1.22 AU and 1.45 AU and 1.47 AU and 1.21 AU and 1.35 AU; TGF-β (AU) ([2]; data used for Table 18 (14-day protocol), listed as Aldosterone + salt): 1.26 AU and 1.85 AU and 0.55 AU and 1.91 AU and 1.49 AU and 1.18 AU and 1.32 AU and 1.27 AU and 0.56 AU and 1.29 AU; TGF-β (AU) ([2]; data used for Table 19 (30-day protocol), listed as Aldosterone + salt): 1.41 AU and 1.27 AU and 2.11 AU and 1.20 AU and 1.95 AU and 1.49 AU and 0.83 AU and 0.54 AU and 1.21 AU; Collagen-III mRNA (AU) ([3]; individual rats, data used for Table 15 (14 days of treatment), incl. rat marked * excluded from statistics, listed as Aldosterone + salt): 0.76 AU and 1.80 AU and 0.44 AU and 1.39 AU and 1.17 AU and 1.24 AU and 1.06 AU and 1.31 AU and 0.59 AU and 1.22 AU; Collagen-III mRNA (AU) ([3]; individual rats, data used for Table 16 (30 days of treatment), incl. rat marked * excluded from statistics, listed as Aldosterone + salt): 0.75 AU and 0.58 AU and 1.99 AU and 0.72 AU and 2.04 AU and 1.43 AU and 1.82 AU and 1.89 AU and 1.28 AU
2 | COC(=O)[C@@H]1CC2=CC(=O)CC[C@]2(C)[C@@]23O[C@@H]2C[C@@]2(C)[C@@H](CC[C@@]24CCC(=O)O4)[C@H]13 [Eplerenone] | 1.25 AU | 2.02 AU | 2.28 AU | inhibition; also recorded: significantly reduced | 0.99 AU | 1.26 AU | 1.32 AU | 1.09± 0.21 AU | 1.61 ± 0.26 AU | 1.53 ± 0.23 AU | 1.61 AU | 1.53 AU | COX-2 (AU) ([1]; individual rats, data used for Table 17 (7-day protocol), incl. rat marked * excluded from statistics, listed as Eplerenone + aldosterone + salt): 1.19 AU and 2.85 AU and 0.60 AU (2×) and 1.16 AU and 0.82 AU and 1.86 AU and 0.91 AU; COX-2 (AU) ([1]; individual rats, data used for Table 18 (14-day protocol), incl. rat marked * excluded from statistics, listed as Eplerenone + aldosterone + salt): 1.56 AU and 1.04 AU and 0.70 AU and 1.41 AU and 3.78 AU and 1.86 AU and 6.19 AU and 1.87 AU and 0.99 AU and 1.92 AU and 0.86 AU; COX-2 (AU) ([1]; individual rats, data used for Table 19 (30-day protocol), incl. rat marked * excluded from statistics, listed as Eplerenone + aldosterone + salt): 2.44 AU and 0.55 AU and 1.97 AU and 3.41 AU and 3.71 AU and 3.04 AU and 2.11 AU and 1.34 AU and 1.92 AU and 12.21 AU; TGF-β (AU) ([2]; data used for Table 17 (7-day protocol), listed as Eplerenone + aldosterone + salt): 0.80 AU (2×) and 0.81 AU and 0.51 AU and 1.31 AU and 1.02 AU and 0.61 AU and 0.84 AU and 1.51 AU and 1.64 AU; TGF-β (AU) ([2]; data used for Table 18 (14-day protocol), listed as Eplerenone + aldosterone + salt): 0.58 AU and 0.62 AU and 1.04 AU and 1.42 AU and 1.29 AU and 1.49 AU and 0.71 AU and 1.21 AU and 1.44 AU and 1.69 AU and 2.41 AU; TGF-β (AU) ([2]; data used for Table 19 (30-day protocol), listed as Eplerenone + aldosterone + salt): 1.00 AU and 1.49 AU and 1.40 AU and 1.31 AU and 0.96 AU and 1.93 AU and 1.54 AU and 1.32 AU and 0.89 AU and 1.35 AU; Collagen-III mRNA (AU) ([3]; individual rats, data used for Table 15 (14 days of treatment), incl. rat marked * excluded from statistics, listed as Eplerenone + aldosterone + salt): 0.60 AU (2×) and 1.19 AU and 1.16 AU and 1.24 AU and 1.70 AU and 1.81 AU and 1.61 AU and 2.21 AU and 1.80 AU and 3.77 AU; Collagen-III mRNA (AU) ([3]; individual rats, data used for Table 16 (30 days of treatment), incl. rat marked * excluded from statistics, listed as Eplerenone + aldosterone + salt): 0.95 AU and 0.72 AU and 1.37 AU and 0.89 AU and 1.26 AU and 1.87 AU and 1.66 AU and 2.89 AU and 2.16 AU and 0.73 AU
